Reference: patent US11318151B2, “Compound pharmaceutical composition for treating skin inflammatory diseases” (Hefei Industrial Pharmaceutical Institute Co., Ltd., priority 2018, dated 2022)

How the values were obtained:
[1] = test system: Phorbol Ester-Induced Mouse Ear Swelling Model; assay: Phorbol ester-induced mouse ear swelling model; format: in vivo, SPF ICR mice; details: 6 h after modeling; for Right ear (ear thickness): phorbol ester 5 μg/20 μL/ear, drug 20 μL/ear 30 min before and 15 min after modeling, thickness gauge; for Swelling degree: right minus left ear thickness, drug 20 μL/ear in DMSO 30 min before and 15 min after modeling; for Inhibition rate of the swelling: vs. model group, ear thickness
Procedure: 1. Therapeutic Effects of the Compound Pharmaceutical Composition of the Disclosure on a Phorbol Ester-Induced Mouse Ear Swelling Model
SPF ICR mice, male, 18-22 g, randomly divided into compound groups with different compound ratios and a model group according to body weight, 10 mice for each group. The test drug is dissolved in a 20 μL solvent of DMSO. The specific group numbers are as follows:
(1) Compound groups with different compound ratios
Tofacitinib:crisaborole=2 mg:2 mg/20 μL (dose ratio=1:1; group a); tofacitinib:crisaborole=2 mg:1 mg/20 μL (dose ratio=2:1; group b); tofacitinib:crisaborole=2 mg:0.5 mg/20 μL (dose ratio=4:1; group c); tofacitinib:crisaborole=2 mg:0.25 mg/20 μL (dose ratio=8:1; group d); tofacitinib:crisaborole=2 mg:0.2 mg/20 μL (dose ratio=10:1; group e); tofacitinib:crisaborole=2 mg:0.125 mg/20 μL (dose ratio=16:1; group f); tofacitinib:crisaborole=1 mg: 2 mg/20 μL (dose ratio=1:2; group g); tofacitinib:crisaborole=0.5 mg:2 mg/20 μL (dose ratio=1:4; group h); tofacitinib:crisaborole=0.25 mg:2 mg/20 μL (dose ratio=1:8; group i); tofacitinib:crisaborole=0.2 mg:2 mg/20 μL (dose ratio=1:10; group j); tofacitinib:crisaborole=0.125 mg:2 mg/20 μL (dose ratio=1:16; group k). (2) Model Group (3) Crisaborole (4 mg/20 ul) (4) Tofacitinib (4 mg/20 ul) (5) Blank group: applying with 20 μL DMSO as a solvent for comparison. Experimental Method:
For the mice of each group, 20 ul (5 μg/20 μL/ear) of phorbol ester is applied to the front and back of the right ear for modeling, and 20 μL solvent medium (acetone) is applied to the left ear; except for the model group, the right ears of the mice in each administration group are applied with corresponding drugs 20 μL/ear 30 minutes before and 15 minutes after modeling, respectively. 6 h after modeling, the ear swelling is measured with a thickness gauge as an indicator of inflammation; then, the animals are sacrificed, the ears are cut and punched with a 6 mm punch, the ear pieces are weighed, and the swelling degree (weight) is calculated.

atopic dermatitis = details: topical 2% tofacitinib, clinical phase II; cited from earlier work

| SMILES | Right ear (ear thickness) [1] | Swelling degree [1] | Inhibition rate of the swelling [1] | itching symptoms in patients (atopic dermatitis) | therapeutic effect on atopic dermatitis (atopic dermatitis) |
| --- | --- | --- | --- | --- | --- |
| C[C@@H]1CCN(C(=O)CC#N)C[C@@H]1N(C)c1ncnc2[nH]ccc12 [Tofacitinib, tofacitinib] | 41.6 ± 3.4 10^−2 mm | 12.4 ± 3.2^ΔΔ 10^−2 mm | 34.7% | can improve itching symptoms in patients | a certain therapeutic effect on atopic dermatitis |
| N#Cc1ccc(Oc2ccc3c(c2)COB3O)cc1 [Crisaborole, crisaborole] | 43.0 ± 3.7 10^−2 mm | 13.3 ± 3.4^Δ 10^−2 mm | 30.0% |  |  |
